The source made the active and inactive calls. No cut-off for these calls is given here.
Legend:
HCT-116 [1] = experiment: Induction of apoptosis in human HCT-116 cells assessed as increase in apoptotic rate at 5 mM incubated for 48 hrs by Annexin V-FITC/PI staining based flow cytometric analysis relative to control; type: functional
HCT-116 [2] = experiment: Induction of apoptosis in human HCT-116 cells assessed as increase in apoptotic rate at 2.5 mM incubated for 48 hrs by Annexin V-FITC/PI staining based flow cytometric analysis relative to control; type: functional
HCT-116 [3] = experiment: Induction of morphological changes in human HCT-116 cells assessed as appearance of freely floating cells at 10 mM incubated for 24 to 72 hrs by inverted microscopic analysis; type: functional, cell-based; conditions: time 24-72 hrs
CCD-841CoN [4] = experiment: Cytotoxicity against human CCD-841CoN cells at 10 mM incubated for 72 hrs by MTT assay; type: toxicity, cell-based; conditions: 10000 µM
HCT-116 [5] = experiment: Induction of apoptosis in human HCT-116 cells assessed as viable cells at 10 mM incubated for 48 hrs by Annexin V-FITC/PI staining based flow cytometric analysis (reference value: 42.5 %); type: functional; conditions: HCT-116, 48 h, read-out: Activity
HCT-116 [6] = experiment: Induction of cell cycle arrest in human HCT-116 cells assessed as accumulation of cells at G0/G1 phase at 5 mM incubated for 48 hrs by PI staining based flow cytometric analysis (reference value: 74.6 %); type: functional
HCT-116 [7] = experiment: Induction of apoptosis in human HCT-116 cells assessed as necrotic cells at 2.5 mM incubated for 48 hrs by Annexin V-FITC/PI staining based flow cytometric analysis (reference value: 0.16 %); type: functional
HCT-116 [8] = experiment: Induction of apoptosis in human HCT-116 cells assessed as viable cells at 1.25 mM incubated for 48 hrs by Annexin V-FITC/PI staining based flow cytometric analysis (reference value: 42.5 %); type: functional; conditions: HCT-116, 48 h, read-out: Activity
HCT-116 [9] = experiment: Induction of apoptosis in human HCT-116 cells assessed as early apoptotic cells at 2.5 mM incubated for 48 hrs by Annexin V-FITC/PI staining based flow cytometric analysis (reference value: 55.2 %); type: functional
HCT-116 [10] = experiment: Cytotoxicity against human HCT-116 cells assessed as reduction in cell viability at 10 mM incubated for 72 hrs by MTT assay (reference value: 100%); type: functional
HCT-116 [11] = experiment: Induction of morphological changes in human HCT-116 cells assessed as appearance of disorganized cell layers at 2.5 to 10 mM incubated for 24 to 72 hrs by inverted microscopic analysis; type: functional, cell-based; conditions: dose 2.5-10 mM, time 24-72 hrs
HCT-116 [12] = experiment: Induction of apoptosis in human HCT-116 cells assessed as increase in Bax/Bcl2 ratio incubated for 48 hrs by Western blotting analysis; type: functional, cell-based; conditions: dose 2.5-5 mM
HCT-116 [13] = experiment: Induction of cell cycle arrest in human HCT-116 cells assessed as accumulation of cells at G2/M phase at 2.5 mM incubated for 48 hrs by PI staining based flow cytometric analysis (reference value: 14 %); type: functional
HCT-116 [14] = experiment: Cytotoxicity against human HCT-116 cells assessed as reduction in ATP level incubated for 24 to 72 hrs by CellTiter-Glo assay; type: functional, cell-based; conditions: dose 0.25-10 mM, time 24-72 hrs
HCT-116 [15] = experiment: Induction of apoptosis in human HCT-116 cells assessed as late apoptotic cells at 1.25 mM incubated for 48 hrs by Annexin V-FITC/PI staining based flow cytometric analysis (reference value: 2.13 %); type: functional
HCT-116 [16] = experiment: Induction of apoptosis in human HCT-116 cells assessed as late apoptotic cells at 2.5 mM incubated for 48 hrs by Annexin V-FITC/PI staining based flow cytometric analysis (reference value: 2.13 %); type: functional
HCT-116 [17] = experiment: Induction of apoptosis in human HCT-116 cells assessed as late apoptotic cells at 5 mM incubated for 48 hrs by Annexin V-FITC/PI staining based flow cytometric analysis (reference value: 2.13 %); type: functional
HCT-116 [18] = experiment: Induction of cell cycle arrest in human HCT-116 cells assessed as accumulation of cells at G0/G1 phase at 10 mM incubated for 48 hrs by PI staining based flow cytometric analysis (reference value: 74.6 %); type: functional
HCT-116 [19] = experiment: Induction of morphological changes in human HCT-116 cells assessed as blebbing of cells at 2.5 to 10 mM incubated for 24 to 72 hrs by inverted microscopic analysis; type: functional, cell-based; conditions: dose 2.5-10 mM, time 24-72 hrs
HCT-116 [20] = experiment: Induction of apoptosis in human HCT-116 cells assessed as necrotic cells at 10 mM incubated for 48 hrs by Annexin V-FITC/PI staining based flow cytometric analysis (reference value: 0.16 %); type: functional
HCT-116 [21] = experiment: Induction of apoptosis in human HCT-116 cells assessed as increase in apoptotic rate at 10 mM incubated for 48 hrs by Annexin V-FITC/PI staining based flow cytometric analysis relative to control; type: functional
HCT-116 [22] = experiment: Induction of cell cycle arrest in human HCT-116 cells assessed as accumulation of cells at G2/M phase at 5 mM incubated for 48 hrs by PI staining based flow cytometric analysis (reference value: 14 %); type: functional
HCT-116 [23] = experiment: Induction of morphological changes in human HCT-116 cells assessed as change in cell shape at 2.5 to 10 mM incubated for 24 to 72 hrs by inverted microscopic analysis; type: functional, cell-based; conditions: dose 2.5-10 mM, time 24-72 hrs
HCT-116 [24] = experiment: Induction of apoptosis in human HCT-116 cells assessed as necrotic cells at 5 mM incubated for 48 hrs by Annexin V-FITC/PI staining based flow cytometric analysis (reference value: 0.16 %); type: functional
HCT-116 [25] = experiment: Induction of cell cycle arrest in human HCT-116 cells assessed as accumulation of cells at G2/M phase at 10 mM incubated for 48 hrs by PI staining based flow cytometric analysis (reference value: 14 %); type: functional
HCT-116 [26] = experiment: Cytotoxicity against human HCT-116 cells assessed as reduction in ATP level at 0.25 to 10 mM by CellTiter-Glo assay; type: functional, cell-based; conditions: dose 0.25-10 mM, time 24-72 hrs
HCT-116 [27] = experiment: Induction of cell cycle arrest in human HCT-116 cells assessed as accumulation of cells at S phase at 1.25 mM incubated for 48 hrs by PI staining based flow cytometric analysis (reference value: 10 %); type: functional
HCT-116 [28] = experiment: Induction of cell cycle arrest in human HCT-116 cells assessed as accumulation of cells at G0/G1 phase at 2.5 mM incubated for 48 hrs by PI staining based flow cytometric analysis (reference value: 74.6 %); type: functional
HCT-116 [29] = experiment: Induction of apoptosis in human HCT-116 cells assessed as early apoptotic cells at 1.25 mM incubated for 48 hrs by Annexin V-FITC/PI staining based flow cytometric analysis (reference value: 55.2 %); type: functional
HCT-116 [30] = experiment: Cytotoxicity against human HCT-116 cells assessed as reduction in cell viability at 10 mM incubated for 24 hrs by MTT assay (reference value: 100%); type: functional
HCT-116 [31] = experiment: Induction of apoptosis in human HCT-116 cells assessed as necrotic cells at 1.25 mM incubated for 48 hrs by Annexin V-FITC/PI staining based flow cytometric analysis (reference value: 0.16 %); type: functional
HCT-116 [32] = experiment: Induction of apoptosis in human HCT-116 cells assessed as viable cells at 5 mM incubated for 48 hrs by Annexin V-FITC/PI staining based flow cytometric analysis (reference value: 42.5 %); type: functional; conditions: HCT-116, 48 h, read-out: Activity
HCT-116 [33] = experiment: Inhibition of colony formation in human HCT-116 cells at 0.25 to 10 mM incubated for 10 days by crystal violet staining based analysis; type: functional, cell-based; conditions: dose 0.25-10 mM, time 10.0 day
HCT-116 [34] = experiment: Induction of cell cycle arrest in human HCT-116 cells assessed as accumulation of cells at S phase at 10 mM incubated for 48 hrs by PI staining based flow cytometric analysis (reference value: 10 %); type: functional
HCT-116 [35] = experiment: Induction of morphological changes in human HCT-116 cells assessed as appearance of lobules at 2.5 to 10 mM incubated for 24 to 72 hrs by inverted microscopic analysis; type: functional, cell-based; conditions: dose 2.5-10 mM, time 24-72 hrs
HCT-116 [36] = experiment: Induction of cell cycle arrest in human HCT-116 cells assessed as accumulation of cells at S phase at 2.5 mM incubated for 48 hrs by PI staining based flow cytometric analysis (reference value: 10 %); type: functional
HCT-116 [37] = experiment: Induction of apoptosis in human HCT-116 cells assessed as late apoptotic cells at 10 mM incubated for 48 hrs by Annexin V-FITC/PI staining based flow cytometric analysis (reference value: 2.13 %); type: functional
CCD-841CoN [38] = experiment: Cytotoxicity against human CCD-841CoN cells at 0.25 to 10 mM incubated for 24 to 48 hrs by MTT assay; type: toxicity, cell-based; conditions: 10000 µM, dose lower 0.25 mM, time lower 24 hrs, dose upper 10 mM, time upper 48 hrs
HCT-116 [39] = experiment: Induction of cell cycle arrest in human HCT-116 cells assessed as accumulation of cells at S phase at 5 mM incubated for 48 hrs by PI staining based flow cytometric analysis (reference value: 10 %); type: functional
HCT-116 [40] = experiment: Induction of apoptosis in human HCT-116 cells assessed as early apoptotic cells at 10 mM incubated for 48 hrs by Annexin V-FITC/PI staining based flow cytometric analysis (reference value: 55.2 %); type: functional
HCT-116 [41] = experiment: Cytotoxicity against human HCT-116 cells assessed as reduction in cell viability at 10 mM incubated for 48 hrs by MTT assay (reference value: 100%); type: functional
HCT-116 [42] = experiment: Induction of ROS generation in human HCT-116 cells assessed as increase in superoxide anion at 1.25 to 10 mM incubated for 48 hrs by DHE fluorescence based analysis; type: functional, cell-based; conditions: dose 1.25-10 mM
HCT-116 [43] = experiment: Induction of cell cycle arrest in human HCT-116 cells assessed as accumulation of cells at G2/M phase at 1.25 mM incubated for 48 hrs by PI staining based flow cytometric analysis (reference value: 14 %); type: functional
HCT-116 [44] = experiment: Induction of morphological changes in human HCT-116 cells assessed as rupture of plasma membrane at 2.5 to 10 mM incubated for 24 to 72 hrs by inverted microscopic analysis; type: functional, cell-based; conditions: dose 2.5-10 mM, time 24-72 hrs
HCT-116 [45] = experiment: Induction of cell cycle arrest in human HCT-116 cells assessed as accumulation of cells at G0/G1 phase at 1.25 mM incubated for 48 hrs by PI staining based flow cytometric analysis (reference value: 74.6 %); type: functional
HCT-116 [46] = experiment: Induction of morphological changes in human HCT-116 cells assessed as rounding of cells at 2.5 to 10 mM incubated for 24 to 72 hrs by inverted microscopic analysis; type: functional, cell-based; conditions: dose 2.5-10 mM, time 24-72 hrs
HCT-116 [47] = experiment: Induction of apoptosis in human HCT-116 cells assessed as viable cells at 2.5 mM incubated for 48 hrs by Annexin V-FITC/PI staining based flow cytometric analysis (reference value: 42.5 %); type: functional; conditions: HCT-116, 48 h, read-out: Activity
HCT-116 [48] = experiment: Induction of apoptosis in human HCT-116 cells assessed as increase in apoptotic rate at 1.25 mM incubated for 48 hrs by Annexin V-FITC/PI staining based flow cytometric analysis relative to control; type: functional
HCT-116 [49] = experiment: Induction of apoptosis in human HCT-116 cells assessed as early apoptotic cells at 5 mM incubated for 48 hrs by Annexin V-FITC/PI staining based flow cytometric analysis (reference value: 55.2 %); type: functional

CCc1ccc(OS(=O)(=O)O)cc1
Activity (HCT-116 [1]): 81%
Activity (HCT-116 [2]): 73%
Activity (HCT-116 [3]): Active
Activity (CCD-841CoN [4]): Non-toxic
viability at 10000 µM (HCT-116 [5]): 0.84%
Activity (HCT-116 [6]): 59.6%
Activity (HCT-116 [7]): 0.065%
viability at 1250 µM (HCT-116 [8]): 27.6%
Activity (HCT-116 [9]): 70.1%
Activity (HCT-116 [10]): 7%
Activity (HCT-116 [11]): Active
Activity (HCT-116 [12]): Dose-dependent-effect
Activity (HCT-116 [13]): 19.7%
Activity (HCT-116 [14]): Dose-dependent-effect
Activity (HCT-116 [15]): 3.78%
Activity (HCT-116 [16]): 7.36%
Activity (HCT-116 [17]): 19.8%
Activity (HCT-116 [18]): 55.4%
Activity (HCT-116 [19]): Active
Activity (HCT-116 [20]): 0.067%
Activity (HCT-116 [21]): 97%
Activity (HCT-116 [22]): 29.8%
Activity (HCT-116 [23]): Active
Activity (HCT-116 [24]): 0.076%
Activity (HCT-116 [25]): 27.2%
Activity (HCT-116 [26]): Time-dependent-effect
Activity (HCT-116 [27]): 9%
Activity (HCT-116 [28]): 64%
Activity (HCT-116 [29]): 68.6%
Activity (HCT-116 [30]): 55%
Activity (HCT-116 [31]): 0.048%
viability at 5000 µM (HCT-116 [32]): 8.22%
inhibition (HCT-116 [33]): Active
Activity (HCT-116 [34]): 13.5%
Activity (HCT-116 [35]): Active
Activity (HCT-116 [36]): 15.4%
Activity (HCT-116 [37]): 50.8%
Activity (CCD-841CoN [38]): Non-toxic
Activity (HCT-116 [39]): 9.8%
Activity (HCT-116 [40]): 48.3%
Activity (HCT-116 [41]): 24%
Activity (HCT-116 [42]): Active
Activity (HCT-116 [43]): 19.7%
Activity (HCT-116 [44]): Active
Activity (HCT-116 [45]): 70.8%
Activity (HCT-116 [46]): Active
viability at 2500 µM (HCT-116 [47]): 22.5%
Activity (HCT-116 [48]): 52%
Activity (HCT-116 [49]): 71.9%

Reference: ChEMBL document CHEMBL6178000, “Gut Microbial Metabolite 4-Ethylphenylsulfate Is Selectively Deleterious and Anticancer to Colon Cancer Cells” (J Med Chem, 2025)
